Laboratory results reported in US11439641B2, “Pyrimidine JAK inhibitors for the treatment of skin diseases” (THERAVANCE BIOPHARMA R&D IP, LLC, priority 2019, dated 2022).
Converted amounts (≈) assume the structure as drawn.

Columns and labels:
JAK1 = JAK1 (Homo sapiens (Human), UniProt P23458); experiment: Biochemical JAK and Tyk2 Kinase Assays (LanthaScreen), JAK1; details: 25 μM ATP (Km), pIC50 converted to pKi by Cheng-Prusoff
JAK3 = JAK3 (Homo sapiens (Human), UniProt P52333); experiment: Biochemical JAK and Tyk2 Kinase Assays (LanthaScreen), JAK3; details: 1.6 μM ATP (Km), pIC50 converted to pKi by Cheng-Prusoff; for Ki: read-out: JAK 3 (pKi) (converted)
Chain of JAK3 (P52333 whole entry): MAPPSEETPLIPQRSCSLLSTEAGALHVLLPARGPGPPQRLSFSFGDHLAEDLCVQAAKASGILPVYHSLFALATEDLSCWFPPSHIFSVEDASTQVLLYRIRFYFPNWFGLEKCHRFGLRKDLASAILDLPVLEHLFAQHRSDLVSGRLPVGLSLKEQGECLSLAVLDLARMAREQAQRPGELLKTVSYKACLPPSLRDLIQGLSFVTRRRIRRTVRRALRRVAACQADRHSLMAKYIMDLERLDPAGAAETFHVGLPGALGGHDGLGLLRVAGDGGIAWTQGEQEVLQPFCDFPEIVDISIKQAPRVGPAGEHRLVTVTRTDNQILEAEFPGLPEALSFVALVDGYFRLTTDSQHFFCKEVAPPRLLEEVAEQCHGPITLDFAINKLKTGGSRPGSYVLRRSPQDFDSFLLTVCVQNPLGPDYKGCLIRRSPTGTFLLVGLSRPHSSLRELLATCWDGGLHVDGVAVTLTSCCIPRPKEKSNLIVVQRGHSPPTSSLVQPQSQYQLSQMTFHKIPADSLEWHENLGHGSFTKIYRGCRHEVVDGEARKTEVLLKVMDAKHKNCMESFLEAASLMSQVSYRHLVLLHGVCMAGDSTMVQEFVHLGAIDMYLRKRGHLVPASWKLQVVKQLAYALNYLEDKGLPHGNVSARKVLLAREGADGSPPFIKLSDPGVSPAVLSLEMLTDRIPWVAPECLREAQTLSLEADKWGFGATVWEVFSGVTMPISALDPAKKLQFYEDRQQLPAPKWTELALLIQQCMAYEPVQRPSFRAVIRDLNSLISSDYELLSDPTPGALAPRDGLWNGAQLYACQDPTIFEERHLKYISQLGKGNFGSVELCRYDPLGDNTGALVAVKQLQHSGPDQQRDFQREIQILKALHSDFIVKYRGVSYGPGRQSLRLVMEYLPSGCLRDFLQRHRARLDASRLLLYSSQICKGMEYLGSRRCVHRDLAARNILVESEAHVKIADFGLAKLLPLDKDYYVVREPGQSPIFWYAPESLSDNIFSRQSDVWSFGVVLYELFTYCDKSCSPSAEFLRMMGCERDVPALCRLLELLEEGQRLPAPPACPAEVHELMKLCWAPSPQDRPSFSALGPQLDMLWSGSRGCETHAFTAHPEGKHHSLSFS

[1] = system: IL-2 stimulated pSTAT5 in Tall-1 T cells; experiment: Inhibition of IL-2 Stimulated pSTAT5 in Tall-1 T Cells; format: cell-based; details: Tall-1 human T cell line, IL-2 300 ng/mL, AlphaLisa; for IC50: read-out: Tall-1 IL2 pSTAT5 (pIC50) (converted)
Outline: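 Cells preincubated with compound 1 hour at 37° C, then stimulated with IL-2 (final 300 ng/mL) for 30 minutes. After lysis, pSTAT5 (Tyr694/699) read by AlphaLISA luminescence. IC50 from inhibition curves, reported as pIC50 (mean±SD).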

Caco-2 cell monolayer = experiment: Caco-2 Permeation Assay; format: in vitro ADME; details: Papp, 5 μM compound; for Cacoverap Kp 10^−6 cm/sec: A→B in the presence of 25 μM verapamil (P-gp inhibitor); for Caco Kp 10^−6 cm/sec: apical to basal (A→B)
Description: Assay 3: Caco-2 Permeation Assay
The Caco 2 permeability assay was used as a surrogate for assessment of skin permeability. This assay measures the in vitro permeability across a monolayer of Caco-2 cells, which morphologically and functionally resemble the enterocytes of the small intestine.
CacoReady 24-well transwell plates were obtained from ADMEcell (Alameda, Calif.). The compounds were evaluated at a concentration of 5 μM from 10 mM DMSO stock solutions in duplicate (n=2). Transport in the apical to basal (A→B) direction was determined in Caco 2 cell monolayers. From these values the apparent permeability (Papp) was calculated. To inform on the potential of the compound to be a P-gp substrate, the transport of the compound across the Caco-2 cell monolayer was also determined in the presence of 25 μM of the known P-gp inhibitor verapamil (Yusa and Tsuruo et al., Cancer Research, vol. 49, no. 18, 1989, pp. 5002-06).
Caco-2 culture media consisted of standard filtered DMEM, FCS 10%, L-Glutamine 1%, and PenStrep 1%. The experiment was conducted at 37° C. and in a CO2 (5%) incubator. The basal assay plate was prepared by adding 750 pt of transport buffer to A→B wells. A CacoReady™ plate was prepared by removing the Caco-2 media from the apical wells and replacing with fresh transport media (200 pt repeated for a total of 3 washes). Blank media (200 μL) was then replaced with diluted compound. To begin the incubation, the basal plate was removed from the incubator and the apical section was added on top of it. Samples were collected from the apical and basal compartments for time zero (t0). Samples were collected again after 120 minutes (t120) from the apical and basal compartments. All samples were diluted and prepared for bioanalysis by LC-MS/MS. The permeability coefficients (Papp, mean A to B) and (Papp, mean A to B+Verapamil) in cm/sec were calculated as dQ (flux)/(dt×Area×concentration).
In this assay, a compound with a Papp value of more than about 12×10−6 cm/sec is considered to have high permeability.

Aqueous Solubility Assay = details: PBS buffer pH 7.4; maximum upper limit 1,000 μM
[2] = Solubility Assay in Organic Excipients; details: maximum upper limit 20,000 μM; for Solubility in MCT (mg/mL): medium chain triglycerides (MCT)
Description: (§5) Assay 6: Solubility Assay in Organic Excipients
(§6) The purpose of this assay was to quantify the solubility of test compounds in different organic excipients such as diisopropyl adipate, medium chain triglycerides (MCT), propylene glycol, and polyethylene glycol. The assay required 80 μL of 100 mM DMSO test compound solution per desired excipient in addition to 40 μL required to make a test standard.
(§7) The standard was created by diluting 40 μL of 100 mM DMSO compound stock solution into 160 μL of methanol and was shaken for five minutes to ensure solution uniformity. […] This 20,000 μM solution was run on an Agilent 1260 LC-MS system by injecting 0.2 μL in order to obtain the peak area. For the test solutions, 80 μL of 100 mM DMSO compound stock solution, per excipient, were dried down into a powder overnight. Once in powder form, 400 μL of the desired excipient was added to the powder and allowed to shake vigorously for four hours. The maximum theoretical concentration for this sample solution was 20,000 μM. After four hours of shaking, the samples were centrifuged for 10 minutes at 3,000 RPM before injecting 0.2 μL on the same Agilent 1260 LC-MS system to obtain the peak area.

JAK2 = JAK2 (Homo sapiens (Human), UniProt O60674); experiment: Biochemical JAK and Tyk2 Kinase Assays (LanthaScreen), JAK2; details: 3 μM ATP (Km); pIC50 converted to pKi by Cheng-Prusoff
Chain of JAK2 (O60674 whole entry): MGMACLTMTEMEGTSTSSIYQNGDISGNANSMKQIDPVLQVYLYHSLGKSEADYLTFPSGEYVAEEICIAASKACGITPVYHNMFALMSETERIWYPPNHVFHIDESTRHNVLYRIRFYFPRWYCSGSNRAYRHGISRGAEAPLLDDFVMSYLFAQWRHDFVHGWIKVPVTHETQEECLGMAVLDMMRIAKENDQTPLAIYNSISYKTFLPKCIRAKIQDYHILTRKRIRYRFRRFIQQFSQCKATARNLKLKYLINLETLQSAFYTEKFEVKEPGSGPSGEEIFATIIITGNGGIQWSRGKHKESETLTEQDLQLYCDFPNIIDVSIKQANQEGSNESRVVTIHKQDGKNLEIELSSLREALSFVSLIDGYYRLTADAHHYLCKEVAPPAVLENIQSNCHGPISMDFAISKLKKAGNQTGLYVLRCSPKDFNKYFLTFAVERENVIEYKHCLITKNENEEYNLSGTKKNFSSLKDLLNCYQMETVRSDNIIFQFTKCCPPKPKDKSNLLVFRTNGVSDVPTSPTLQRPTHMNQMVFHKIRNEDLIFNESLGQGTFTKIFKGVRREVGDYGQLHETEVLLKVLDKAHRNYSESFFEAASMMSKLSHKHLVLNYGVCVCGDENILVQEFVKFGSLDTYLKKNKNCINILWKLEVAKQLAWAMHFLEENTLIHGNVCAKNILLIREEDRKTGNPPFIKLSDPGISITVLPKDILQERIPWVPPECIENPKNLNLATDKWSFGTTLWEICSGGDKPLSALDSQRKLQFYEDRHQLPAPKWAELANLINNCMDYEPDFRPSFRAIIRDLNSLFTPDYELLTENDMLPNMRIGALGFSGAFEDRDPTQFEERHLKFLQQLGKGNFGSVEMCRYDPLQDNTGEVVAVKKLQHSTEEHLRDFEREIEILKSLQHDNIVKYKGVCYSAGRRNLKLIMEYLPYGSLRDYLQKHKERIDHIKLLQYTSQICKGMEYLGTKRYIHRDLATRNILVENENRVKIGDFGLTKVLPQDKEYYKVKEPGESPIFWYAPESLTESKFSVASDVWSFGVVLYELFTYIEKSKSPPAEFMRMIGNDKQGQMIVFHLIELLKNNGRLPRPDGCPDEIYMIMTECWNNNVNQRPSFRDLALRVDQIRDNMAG
Description: (§1) Assay 1: Biochemical JAK and Tyk2 Kinase Assays
(§2) A panel of four LanthaScreen JAK biochemical assays (JAK1, 2, 3 and Tyk2) were carried in a common kinase reaction buffer (50 mM HEPES, pH 7.5, 0.01% Brij-35, 10 mM MgCl2, and 1 mM EGTA). Recombinant GST-tagged JAK enzymes and a GFP-tagged STAT1 peptide substrate were obtained from Life Technologies.
(§3) Serially or discretely diluted compounds were pre-incubated with each of the four JAK enzymes and the substrate in white 384-well microplates (Corning) at ambient temperature for 1 h. ATP was subsequently added to initiate the kinase reactions in 10 μL total volume, with 1% DMSO. The final enzyme concentrations for JAK1, 2, 3 and Tyk2 are 4.2 nM, 0.1 nM, 1 nM, and 0.25 nM respectively; the corresponding Km ATP concentrations used are 25 μM, 3 μM, 1.6 μM, and 10 μM; while the substrate concentration is 200 nM for all four assays. Kinase reactions were allowed to proceed for 1 hour at ambient temperature before a 10 μL preparation of EDTA (10 mM final concentration) and Tb-anti-pSTAT1 (pTyr701) antibody (Life Technologies, 2 nM final concentration) in TR-FRET dilution buffer (Life Technologies) was added. The plates were allowed to incubate at ambient temperature for 1 h before being read on the EnVision reader (Perkin Elmer). Emission ratio signals (520 nm/495 nm) were recorded and utilized to calculate the percent inhibition values based on DMSO and background controls.
(§4) For dose-response analysis, percent inhibition data were plotted vs. compound concentrations, and IC50 values were determined from a 4-parameter robust fit model with the Prism software (GraphPad Software). Results were expressed as pIC50 (negative logarithm of IC50) and subsequently converted to pKi (negative logarithm of dissociation constant, Ki) using the Cheng-Prusoff equation.

Tyk2 = Tyk2 (Homo sapiens (Human), UniProt P29597); experiment: Biochemical JAK and Tyk2 Kinase Assays (LanthaScreen), Tyk2; details: 10 μM ATP (Km), pIC50 converted to pKi by Cheng-Prusoff; for Ki: read-out: Tyk 2 (pKi) (converted)
Chain of Tyk2 (P29597 whole entry): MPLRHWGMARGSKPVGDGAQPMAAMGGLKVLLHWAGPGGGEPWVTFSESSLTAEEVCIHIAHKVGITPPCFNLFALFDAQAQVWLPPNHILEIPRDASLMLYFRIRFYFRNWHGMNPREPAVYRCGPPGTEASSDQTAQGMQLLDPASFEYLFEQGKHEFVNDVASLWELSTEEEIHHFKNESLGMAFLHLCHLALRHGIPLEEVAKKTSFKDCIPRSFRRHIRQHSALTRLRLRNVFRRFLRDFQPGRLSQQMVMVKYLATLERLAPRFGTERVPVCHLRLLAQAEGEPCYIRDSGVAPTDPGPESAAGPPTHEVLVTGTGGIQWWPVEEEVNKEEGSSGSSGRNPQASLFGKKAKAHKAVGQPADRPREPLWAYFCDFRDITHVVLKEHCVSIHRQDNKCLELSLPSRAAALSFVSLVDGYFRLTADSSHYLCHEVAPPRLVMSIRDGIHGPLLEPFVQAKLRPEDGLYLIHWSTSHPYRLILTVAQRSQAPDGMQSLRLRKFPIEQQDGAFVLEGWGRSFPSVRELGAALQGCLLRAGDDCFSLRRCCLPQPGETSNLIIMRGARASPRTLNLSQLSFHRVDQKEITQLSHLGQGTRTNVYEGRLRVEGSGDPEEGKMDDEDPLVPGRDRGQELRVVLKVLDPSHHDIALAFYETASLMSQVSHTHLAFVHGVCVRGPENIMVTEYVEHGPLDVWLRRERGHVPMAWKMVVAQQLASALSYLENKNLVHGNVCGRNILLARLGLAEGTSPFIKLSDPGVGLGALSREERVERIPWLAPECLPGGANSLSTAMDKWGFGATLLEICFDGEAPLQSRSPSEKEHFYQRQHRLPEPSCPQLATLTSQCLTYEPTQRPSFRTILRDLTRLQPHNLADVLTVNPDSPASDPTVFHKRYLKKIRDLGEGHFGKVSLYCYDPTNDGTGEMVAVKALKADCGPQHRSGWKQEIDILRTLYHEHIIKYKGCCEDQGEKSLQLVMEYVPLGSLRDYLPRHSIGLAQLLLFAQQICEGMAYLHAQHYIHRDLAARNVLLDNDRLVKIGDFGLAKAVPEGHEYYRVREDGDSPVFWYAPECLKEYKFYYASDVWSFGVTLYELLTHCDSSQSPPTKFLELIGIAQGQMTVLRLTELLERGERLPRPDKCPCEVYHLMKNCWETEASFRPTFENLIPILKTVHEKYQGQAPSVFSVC
Description: as §1, §2, §3, §4

physchem = details: thermodynamic from solid
Description: as §5, §6, §7

[3] = oil or lipid, Solubility in MCT (mg/mL)
[4] = organic solvent or mixture, Solubility in Diisopropyl adipate (mg/mL)
[5] = organic solvent or mixture, Solubility in PEG400 (mg/mL)
[6] = organic solvent or mixture, Solubility in Propylene glycol (mg/mL)

Chain of JAK1 (P23458 whole entry): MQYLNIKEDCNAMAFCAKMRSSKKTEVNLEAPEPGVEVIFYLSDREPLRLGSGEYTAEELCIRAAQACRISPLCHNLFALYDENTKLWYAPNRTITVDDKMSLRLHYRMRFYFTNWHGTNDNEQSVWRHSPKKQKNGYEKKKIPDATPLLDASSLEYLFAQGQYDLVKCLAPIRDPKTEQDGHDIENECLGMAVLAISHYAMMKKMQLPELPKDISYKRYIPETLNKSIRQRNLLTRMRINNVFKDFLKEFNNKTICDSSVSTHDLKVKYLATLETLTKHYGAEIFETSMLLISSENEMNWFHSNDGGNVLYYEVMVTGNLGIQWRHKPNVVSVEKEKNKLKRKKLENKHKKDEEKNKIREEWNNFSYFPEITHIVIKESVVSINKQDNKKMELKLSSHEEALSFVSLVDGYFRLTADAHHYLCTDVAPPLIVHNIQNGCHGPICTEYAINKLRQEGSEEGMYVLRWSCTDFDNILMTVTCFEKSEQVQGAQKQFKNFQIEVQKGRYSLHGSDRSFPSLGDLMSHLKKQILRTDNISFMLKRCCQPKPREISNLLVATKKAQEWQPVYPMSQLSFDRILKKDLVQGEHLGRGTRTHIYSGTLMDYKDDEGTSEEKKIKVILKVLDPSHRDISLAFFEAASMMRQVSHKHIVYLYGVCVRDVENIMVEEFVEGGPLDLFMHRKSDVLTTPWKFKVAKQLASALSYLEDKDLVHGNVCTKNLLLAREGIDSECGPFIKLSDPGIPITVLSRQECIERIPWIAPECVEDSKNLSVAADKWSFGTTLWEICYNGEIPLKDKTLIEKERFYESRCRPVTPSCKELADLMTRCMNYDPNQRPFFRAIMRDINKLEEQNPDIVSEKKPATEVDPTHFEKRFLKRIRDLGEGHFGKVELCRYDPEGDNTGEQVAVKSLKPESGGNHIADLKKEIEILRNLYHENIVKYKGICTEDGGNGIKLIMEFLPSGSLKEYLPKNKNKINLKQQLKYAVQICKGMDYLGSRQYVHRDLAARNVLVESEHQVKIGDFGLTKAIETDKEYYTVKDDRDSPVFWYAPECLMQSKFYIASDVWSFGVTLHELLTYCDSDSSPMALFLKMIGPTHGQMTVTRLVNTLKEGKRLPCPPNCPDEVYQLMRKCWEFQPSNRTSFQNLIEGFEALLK

SMILES	JAK 1 (pKi) (JAK1)	JAK 3 (pKi) (JAK3)	Tall-1 IL2 pSTAT5 (pIC50) [1]	Cacoverap Kp 10^−6 cm/sec (Caco-2 cell monolayer)	Caco Kp 10^−6 cm/sec (Caco-2 cell monolayer)	Solubility at PH 7.4 (μmol) (Aqueous Solubility Assay)	Solubility in PEG400 (mg/mL) [2]	Solubility in Diisopropyl adipate (mg/mL) [2]	Solubility in MCT (mg/mL) [2]	Solubility in Propylene glycol (mg/mL) [2]	Ki (JAK1; read-out: JAK 1 (pKi) (converted)) [nM]	JAK 2 (pKi) (JAK2)	Ki (JAK3) [nM]	Ki (Tyk2) [nM]	IC50 [1] [nM]	solubility at 4 h (physchem; [3]) [µg/mL]	solubility at 4 h (physchem; [4]) [µg/mL]	solubility at 4 h (physchem; [5]) [µg/mL]	solubility at 4 h (physchem; [6]) [µg/mL]	Tyk 2 (pKi) (Tyk2)
Cc1cc(Nc2cc(C3CCCO3)nc(N(C)[C@@H]3C[C@H]4CCC[C@@H](C3)N4C(=O)CC3CC3)n2)n[nH]1 (stereo partly drawn) [Compound 12, 2-cyclopropyl-1-((1R,3s,5S)-3-(methyl(4-((5-methyl-1H-pyrazol-3-yl)amino)-6-(tetrahydrofuran-2-yl)pyrimidin-2-yl)amino)-9-azabicyclo[3.3.1]nonan-9-yl)ethan-1-one]	B (B represents a pKi value between 9 and 10 (Ki between 1 nM and 0.1 nM))	C (C represents a pKi value between 8 and 9 (Ki between 10 nM and 1 nM))	A (A represents a pIC50 value ≥8.0)	C (C represents a value between 12×10^−6 and 20×10^−6 cm/sec)	B (B represents a value between 15×10^−6 and 30×10^−6 cm/sec)	C (C represents a value between 50 and 250)	B (B represents a value between 5 and 10)	B (B represents a value between 5 and 10)	C (C represents a value below 5)	B (B represents a value between 5 and 10)										
CCNC(=O)CN1[C@@H]2CCC[C@H]1C[C@H](N(C)c1nc(Nc3cc(C)[nH]n3)cc(C3CCCO3)n1)C2 (stereo partly drawn) [Compound 15, N-ethyl-2-((1R,3s,5S)-3-(methyl(4-((5-methyl-1H-pyrazol-3-yl)amino)-6-(tetrahydrofuran-2-yl)pyrimidin-2-yl)amino)-9-azabicyclo[3.3.1]nonan-9-yl)acetamide]	A (A represents a pKi value ≥10 (Ki≤0.1 nM))	B (B represents a pKi value between 9 and 10 (Ki between 1 nM and 0.1 nM))	A (A represents a pIC50 value ≥8.0)	B (B represents a value between 20×10^−6 and 35×10^−6 cm/sec)	B (B represents a value between 15×10^−6 and 30×10^−6 cm/sec)	A (A represents a value above 500)	B (B represents a value between 5 and 10)	A (A represents a value above 10)	C (C represents a value below 5)	A (A represents a value above 10)										
COCCC(=O)N1[C@@H]2CCC[C@H]1C[C@H](N(C)c1nc(Nc3cc(C)[nH]n3)cc(O[C@@H]3CCOC3)n1)C2 [Compound 25]											0.1 to 1	A (A represents a pKi value ≥10 (Ki≤0.1 nM))	0.1 to 1	0.1 to 1	≤ 10	< 5000	> 10000	> 10000	> 10000	
CCNC(=O)CN1[C@@H]2CCC[C@H]1C[C@H](N(C)c1nc(Nc3cc(C)[nH]n3)cc(O[C@H]3CCOC3)n1)C2 [Compound 32]	A (A represents a pKi value ≥10 (Ki≤0.1 nM))											A (A represents a pKi value ≥10 (Ki≤0.1 nM))	0.1 to 1	0.1 to 1		< 5000	> 10000	> 10000	> 10000	
Cc1cc(Nc2cc(OC3COC3)nc(N(C)[C@@H]3C[C@H]4CCC[C@@H](C3)N4C(=O)CC3CC3)n2)n[nH]1 [Compound 35]	A (A represents a pKi value ≥10 (Ki≤0.1 nM))											A (A represents a pKi value ≥10 (Ki≤0.1 nM))	0.1 to 1		≤ 10	< 5000	5000 to 10000 (≈ 10.4 to 20.8 mM)	5000 to 10000 (≈ 10.4 to 20.8 mM)	5000 to 10000 (≈ 10.4 to 20.8 mM)	A (A represents a pKi value ≥10 (Ki≤0.1 nM))
CCS(=O)(=O)N1[C@@H]2CCC[C@H]1C[C@H](N(C)c1nc(Nc3cc(C)[nH]n3)cc(OCC3COC3)n1)C2 [Compound 39, N^2-((1R,3s,5S)-9-(ethylsulfonyl)-9-azabicyclo[3.3.1]nonan-3-yl)-N2-methyl-N4-(5-methyl-1H-pyrazol-3-yl)-6-(oxetan-3-ylmethoxy)pyrimidine-2,4-diamine]	A (A represents a pKi value ≥10 (Ki≤0.1 nM))	A (A represents a pKi value ≥10 (Ki≤0.1 nM))		B (B represents a value between 20×10^−6 and 35×10^−6 cm/sec)	B (B represents a value between 15×10^−6 and 30×10^−6 cm/sec)	E (E represents a value below 10)	A (A represents a value above 10)	B (B represents a value between 5 and 10)	C (C represents a value below 5)	B (B represents a value between 5 and 10)										
CCS(=O)(=O)N1[C@@H]2CCC[C@H]1C[C@H](N(C)c1nc(Nc3cc(C)[nH]n3)c(F)c(C3CCOCC3)n1)C2 [Compound 45, N2-((1R,3s,5S)-9-(ethylsulfonyl)-9-azabicyclo[3.3.1]nonan-3-yl)-5-fluoro-N2-methyl-N4-(5-methyl-1H-pyrazol-3-yl)-6-(tetrahydro-2H-pyran-4-yl)pyrimidine-2,4-diamine]	B (B represents a pKi value between 9 and 10 (Ki between 1 nM and 0.1 nM))	C (C represents a pKi value between 8 and 9 (Ki between 10 nM and 1 nM))	A (A represents a pIC50 value ≥8.0)	B (B represents a value between 20×10^−6 and 35×10^−6 cm/sec)	B (B represents a value between 15×10^−6 and 30×10^−6 cm/sec)	E (E represents a value below 10)	A (A represents a value above 10)	A (A represents a value above 10)	C (C represents a value below 5)	A (A represents a value above 10)										
